Data reported in ChEMBL document CHEMBL1201862, “PubChem BioAssay data set” (2004).
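Cells were grown in 96-well plates and exposed to each compound for 48 hours at five concentrations; endpoints were interpolated linearly between bracketing concentrations, or set to the highest concentration if not reached. Here, GI50 denotes the concentration required for 50% inhibition of growth.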 The source made the active and inactive calls. No stated cut-off is given here; in the data, active = GI50 up to about 1.1 µM and inactive = higher.

What was measured:
Test in all cases: inhibition of tumour cell growth, NCI panel, 48 h
HCC 2998 = test system: HCC 2998
OVCAR-3 = test system: OVCAR-3
HOP-92 = test system: HOP-92
SN12C = test system: SN12C
NCI-H522 = test system: NCI-H522
HCT-116 = test system: HCT-116
Malme-3M = test system: Malme-3M
SF-268 = test system: SF-268
HL-60 = test system: HL-60
SW-620 = test system: SW-620
HOP-62 = test system: HOP-62
SK-MEL-28 = test system: SK-MEL-28
M14 = test system: M14
K562 = test system: K562
RXF 393 = test system: RXF 393
OVCAR-8 = test system: OVCAR-8
NCI/ADR-RES = test system: NCI/ADR-RES
MDA-MB-435 = test system: MDA-MB-435
T47D = test system: T47D
Hs-578T = test system: Hs-578T

Row | Structure (SMILES) | GI50 (HCC 2998) | GI50 (OVCAR-3) | GI50 (HOP-92) | GI50 (SN12C) | GI50 (NCI-H522) | GI50 (HCT-116) | GI50 (Malme-3M) | GI50 (SF-268) | GI50 (HL-60) | GI50 (SW-620) | GI50 (HOP-62) | GI50 (SK-MEL-28) | GI50 (M14) | GI50 (K562) | GI50 (RXF 393) | GI50 (OVCAR-8) | GI50 (NCI/ADR-RES) | GI50 (MDA-MB-435) | GI50 (T47D) | GI50 (Hs-578T)
1 | CC(C)(C)[C@H]1CO[C@]2(C)[C@@H]3C[C@@H]3C(=O)N12 | > 100 µM (inactive) | > 100 µM (inactive) | > 100 µM (inactive) | > 100 µM (inactive) | > 100 µM (inactive) | > 100 µM (inactive) | > 100 µM (inactive) | > 100 µM (inactive) | > 100 µM (inactive) | > 100 µM (inactive) | > 100 µM (inactive) | > 100 µM (inactive) | > 100 µM (inactive) | > 100 µM (inactive) | > 100 µM (inactive) | > 100 µM (inactive) |  |  |  | 
2 | CC1[C@@]2(CCC(C)(C)O2)O[C@@H]2C=C3C4CCC5Cc6nc7c(nc6C[C@@]5(C)C4C[C@H](O)[C@@]3(C)[C@]12O)CC1CCC2C3=C[C@H]4O[C@@]5(O[C@@](C)(CO)C[C@@H]5O)C(C)[C@@]4(O)[C@]3(C)[C@@H](O)CC2[C@]1(C)C7 (some centres undefined) | 0.624 µM (active) | 0.736 µM (active) | 0.0524 µM (active) | 0.975 µM (active) | 0.00902 µM (active) | 0.12 µM (active) | 0.175 µM (active) | 0.05 µM (active) | 0.0307 µM (active) | 0.064 µM (active) | 0.0272 µM (active) | 0.0553 µM (active) | 0.04 µM (active) | 0.055 µM (active) | 0.00641 µM (active) | 0.753 µM (active) | 0.619 µM (active) |  |  | 
3 | COc1cc(C2c3cccc4cccc(c34)C3CCC(=O)N32)cc(OC)c1O (centres undefined) |  | > 50 µM (inactive) | > 50 µM (inactive) | > 50 µM (inactive) |  | > 50 µM (inactive) |  |  | > 50 µM (inactive) | > 50 µM (inactive) | > 50 µM (inactive) | > 50 µM (inactive) | > 50 µM (inactive) | > 50 µM (inactive) | > 50 µM (inactive) | > 50 µM (inactive) | > 50 µM (inactive) | > 50 µM (inactive) | > 50 µM (inactive) | 
4 | C=CCC1(CN(C)C)CC/C(=C\c2cc(OC)c(OC)c(OC)c2)C1=O (centres undefined) | 18.1 µM (inactive) | 24 µM (inactive) | 90.6 µM (inactive) | 22.3 µM (inactive) | 15.1 µM (inactive) | 17.5 µM (inactive) | 33.1 µM (inactive) | 19.2 µM (inactive) | 6.81 µM (inactive) | 18.7 µM (inactive) | 77.8 µM (inactive) | 34.2 µM (inactive) | 19.4 µM (inactive) | 20.4 µM (inactive) | 19.2 µM (inactive) | 22.8 µM (inactive) |  |  |  | 
5 | Nc1ccc(/N=N/c2ccccc2)cc1 | 61.5 µM (inactive) | 18.8 µM (inactive) | 30.6 µM (inactive) | 69.5 µM (inactive) |  | 54.6 µM (inactive) | 75.9 µM (inactive) |  | 13.4 µM (inactive) | 51.8 µM (inactive) | 42 µM (inactive) | > 100 µM (inactive) | 44.4 µM (inactive) | 35.8 µM (inactive) | 20.1 µM (inactive) | 28 µM (inactive) | 34.8 µM (inactive) | 56.1 µM (inactive) |  | > 100 µM (inactive)
6 | O=S1(=O)C[C@H](O)[C@H](O)CS1 | > 100 µM (inactive) | > 100 µM (inactive) | > 100 µM (inactive) | > 100 µM (inactive) | > 100 µM (inactive) | > 100 µM (inactive) | > 100 µM (inactive) | > 100 µM (inactive) | > 100 µM (inactive) | > 100 µM (inactive) | > 100 µM (inactive) | > 100 µM (inactive) | > 100 µM (inactive) | > 100 µM (inactive) | > 100 µM (inactive) | > 100 µM (inactive) |  |  |  | 
7 | O=c1[nH]c(=O)n(COCCOCc2ccccc2)cc1Nc1ccccc1 | > 100 µM (inactive) | > 100 µM (inactive) | > 100 µM (inactive) | > 100 µM (inactive) | > 100 µM (inactive) | > 100 µM (inactive) | > 100 µM (inactive) | > 100 µM (inactive) | 41.9 µM (inactive) | > 100 µM (inactive) | > 100 µM (inactive) | > 100 µM (inactive) | > 100 µM (inactive) | > 100 µM (inactive) | > 100 µM (inactive) | > 100 µM (inactive) | > 100 µM (inactive) | > 100 µM (inactive) | 24.2 µM (inactive) | 
8 | CC(=O)C(CN(CC(C)C)CC(C)C)C(c1ccccc1)c1c(O)c2ccccc2oc1=O (centres undefined) | > 100 µM (inactive) | > 100 µM (inactive) | > 100 µM (inactive) | > 100 µM (inactive) | > 100 µM (inactive) | > 100 µM (inactive) | > 100 µM (inactive) | > 100 µM (inactive) | > 100 µM (inactive) | > 100 µM (inactive) | > 100 µM (inactive) | > 100 µM (inactive) | > 100 µM (inactive) | > 10 µM (inactive) | > 100 µM (inactive) | > 100 µM (inactive) |  |  |  | 
9 | CSc1nc(Cl)c(Br)c(Nc2cnc(O)nc2O)n1 | 17.8 µM (inactive) | 14.6 µM (inactive) | 13.1 µM (inactive) | 18.2 µM (inactive) | 1.87 µM (inactive) | 14.6 µM (inactive) | 20.7 µM (inactive) |  | 2.06 µM (inactive) | 27.1 µM (inactive) | 16.9 µM (inactive) | 29.5 µM (inactive) | 27.9 µM (inactive) | 26.9 µM (inactive) | 22.1 µM (inactive) | 15.6 µM (inactive) | 19.7 µM (inactive) | 27.5 µM (inactive) | 13.8 µM (inactive) | 
10 | O=C(c1ccccc1)c1c(C(=O)c2ccccc2)c(-c2ccccc2)c2c(-c3ccccc3)sc(-c3ccccc3)c2c1-c1ccccc1 | > 100 µM (inactive) | > 100 µM (inactive) | > 100 µM (inactive) | > 100 µM (inactive) | > 100 µM (inactive) | > 100 µM (inactive) | > 100 µM (inactive) | > 100 µM (inactive) | > 100 µM (inactive) | > 100 µM (inactive) | > 100 µM (inactive) | > 100 µM (inactive) | > 100 µM (inactive) | > 100 µM (inactive) | > 100 µM (inactive) | > 100 µM (inactive) |  |  |  | 
11 | CC(C)C1=Cc2ccc3c(c2C(=O)C1=O)CCCC3(C)C [MILTIRONE] | 18.4 µM (inactive) | 2.58 µM (inactive) | 4.18 µM (inactive) | 5.56 µM (inactive) | 1.79 µM (inactive) | 1.81 µM (inactive) | 4.74 µM (inactive) | 6.9 µM (inactive) | 2.37 µM (inactive) | 3.15 µM (inactive) | 19.6 µM (inactive) | 5.62 µM (inactive) | 5.46 µM (inactive) | 2.67 µM (inactive) | 1.85 µM (inactive) | 4.29 µM (inactive) |  |  |  | 
12 | N#CC12Cc3cc4c(cc3-c3cccc(c31)CCN2C(=O)c1ccccc1)OCO4 (centres undefined) | > 100 µM (inactive) | > 100 µM (inactive) | 22.8 µM (inactive) | > 100 µM (inactive) | > 10 µM (inactive) | > 100 µM (inactive) | > 100 µM (inactive) | > 100 µM (inactive) | > 100 µM (inactive) | > 100 µM (inactive) | 53.8 µM (inactive) | > 100 µM (inactive) | > 100 µM (inactive) | > 100 µM (inactive) | 53.1 µM (inactive) | 65.3 µM (inactive) |  |  |  | 
13 | CN(C)CCN(C)C(=O)C1CCCN1C(=O)OCc1ccccc1 (centres undefined) | > 100 µM (inactive) | > 100 µM (inactive) | > 100 µM (inactive) | > 100 µM (inactive) | 6.71 µM (inactive) | > 100 µM (inactive) | > 100 µM (inactive) | > 100 µM (inactive) | 34.7 µM (inactive) | > 100 µM (inactive) | > 100 µM (inactive) | > 100 µM (inactive) | > 100 µM (inactive) | 61.1 µM (inactive) | > 100 µM (inactive) | > 100 µM (inactive) |  |  |  | 
14 | CCOC(=O)C1=C(Nc2cccc3ccccc23)OC/C1=N\NC(=O)c1ccccc1O | 54.1 µM (inactive) | 10.6 µM (inactive) | 11.1 µM (inactive) | 23.4 µM (inactive) | 7.64 µM (inactive) | 19.1 µM (inactive) | 28.9 µM (inactive) | 13.4 µM (inactive) | 6.93 µM (inactive) | 18.8 µM (inactive) | 13.5 µM (inactive) | 22.3 µM (inactive) | 21.9 µM (inactive) | 10.1 µM (inactive) | 3.96 µM (inactive) | 17 µM (inactive) |  |  |  | 
15 | Cc1cccc2cc3c(ccc4ccccc43)c[n+]12 | 16.3 µM (inactive) | 2.06 µM (inactive) |  | 3.18 µM (inactive) | 9.25 µM (inactive) | 36.9 µM (inactive) | 1.77 µM (inactive) | 2.83 µM (inactive) | 48.4 µM (inactive) | 21.3 µM (inactive) | 7.89 µM (inactive) | 14.7 µM (inactive) |  | 30.1 µM (inactive) | 53 µM (inactive) | 15.4 µM (inactive) | > 100 µM (inactive) | 33.4 µM (inactive) |  | 5.38 µM (inactive)
16 | C=CCN1CCC(O)(c2cc(C(=O)OCC)[nH]c2-c2cc(C)no2)C1 (centres undefined) |  | > 100 µM (inactive) | > 100 µM (inactive) | > 100 µM (inactive) | > 100 µM (inactive) | > 100 µM (inactive) | > 100 µM (inactive) | > 100 µM (inactive) | > 100 µM (inactive) | > 100 µM (inactive) |  | > 100 µM (inactive) | > 100 µM (inactive) | > 100 µM (inactive) | > 100 µM (inactive) | > 100 µM (inactive) | > 100 µM (inactive) | > 100 µM (inactive) | > 100 µM (inactive) | 
